According to US8492329B2, “Bioactive peptides and methods of using same” (Compugen Ltd., priority 2007, dated 2013):
No end group written: not given here.

Tests used:
Format in all cases: cell-based
[1] = tested on: untransfected CHO-K1 cells; test: ACEA RT-CES cell impedance, untransfected CHO-K1 cells; conditions: for effect on cell impedance (normalized cell index): P74C13V 10 uM, H2 Relaxin 1 uM, FIG. 11; for dose response activation (cell impedance): data not shown
Description: ACEA RT-CES screen is a noninvasive and label-free assay for GPCRs that can be used with both engineered and nonengineered cell lines. The assay is based on using cell-electrode impedance to measure minute changes in cellular morphology as a result of ligand-dependent GPCR activation and is described in Naichen Yu, et al., Anal. Chem., 78 (1), 35-43, 2006. 10.1021/ac051695v S0003-2700(05)01695-1. The Rho family of small GTPases, which include Rho, Rac, and CDC42, are well-characterized effectors of oncogenes, growth factor and adhesion-mediated signaling pathways and are not classically thought of as being key effectors for GPCRs. Rho family GTPases participate in a number of cellular processes, the main one being regulation and maintenance of specific structures within the actin cytoskeleton framework. […] The current view of the actin cytoskeleton is that of a dynamic and plastic system that is a reflection and manifestation of the intracellular signaling and not simply a static structure designed to maintain cellular architecture. Since GPCRs couple to the actin cytoskeletal network and induce very defined morphological changes, it is possible to harness this information as a functional and biologically relevant readout for GPCRs.
ACEA biosciences; has designed electronic cell sensor arrays embedded in the bottom of the well of microtiter plates that are capable of measuring minute changes in cell morphology. The electronic sensors measure changes in cell-substrate impedance as a result of the disruption of the ionic environment due to the presence of cell and cell morphology dynamics. The main advantages offered by using cell-substrate impedance and cell morphology as a readout are that both exogenously expressed and endogenous receptors can be assayed without the need for engineering the cell with promiscuous G proteins and reporters or labeling the cells with dyes. In addition, since the readout is noninvasive, multiple stimulations with the same ligand or different ligands can be performed to assess events such as desensitization and receptor cross-talk. Finally, another major aspect of using cell-substrate impedance and cell morphology as a readout is that potentially all GPCRs, regardless of the signaling pathways, can be functionally monitored.
Peptides were synthesized by the solid phase peptide synthesis (SPPS) method, cleaved from the resin, and purified by RP-HPLC unless stated otherwise. […] Final purity of peptide was >90% as measured by RP-HPLC. […]
Before the transfected cells were seeded, […] SFM F12-HAM medium were added to each well of the E-plates and background levels were recorded.
Total cell number was calculated and cells were re-suspended in complete growth medium to cell concentration ranging from 0.3125×10^6/mL up to 0.4375×10^6/mL. […]

[2] = molecular target: T1, GPR39 (Homo sapiens, UniProt O43194); test: ACEA RT-CES cell impedance, GPR39 transfected CHO-K1 cells; conditions: P74C13V 10 uM, H2 Relaxin 1 uM, FIG. 12
T1 construct: expressed in transfected cells; host or cells: CHO-K1 (transient, FuGENE6; pIRES-eGFP co-transfected)
T1 sequence (O43194 1-453): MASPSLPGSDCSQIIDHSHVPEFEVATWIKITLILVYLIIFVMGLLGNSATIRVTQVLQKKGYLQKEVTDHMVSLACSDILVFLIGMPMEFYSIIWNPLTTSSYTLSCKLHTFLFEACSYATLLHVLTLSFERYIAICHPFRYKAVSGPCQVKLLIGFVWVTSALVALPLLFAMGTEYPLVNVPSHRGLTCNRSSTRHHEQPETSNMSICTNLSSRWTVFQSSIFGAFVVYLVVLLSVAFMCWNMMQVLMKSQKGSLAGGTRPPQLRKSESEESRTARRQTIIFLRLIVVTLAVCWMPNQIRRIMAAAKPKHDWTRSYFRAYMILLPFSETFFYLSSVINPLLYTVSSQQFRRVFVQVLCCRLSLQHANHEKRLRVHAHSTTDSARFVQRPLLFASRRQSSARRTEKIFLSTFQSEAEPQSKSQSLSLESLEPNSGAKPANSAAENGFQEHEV
Description: (§1) ACEA RT-CES screen is a noninvasive and label-free assay for GPCRs that can be used with both engineered and nonengineered cell lines. The assay is based on using cell-electrode impedance to measure minute changes in cellular morphology as a result of ligand-dependent GPCR activation and is described in Naichen Yu, et al., Anal. Chem., 78 (1), 35-43, 2006. 10.1021/ac051695v S0003-2700(05)01695-1. The Rho family of small GTPases, which include Rho, Rac, and CDC42, are well-characterized effectors of oncogenes, growth factor and adhesion-mediated signaling pathways and are not classically thought of as being key effectors for GPCRs. […] Since GPCRs couple to the actin cytoskeletal network and induce very defined morphological changes, it is possible to harness this information as a functional and biologically relevant readout for GPCRs.
(§2) ACEA biosciences; has designed electronic cell sensor arrays embedded in the bottom of the well of microtiter plates that are capable of measuring minute changes in cell morphology. […] The main advantages offered by using cell-substrate impedance and cell morphology as a readout are that both exogenously expressed and endogenous receptors can be assayed without the need for engineering the cell with promiscuous G proteins and reporters or labeling the cells with dyes. […]

[3] = molecular target: T2, LGR4 (Homo sapiens, UniProt Q9BXB1); test: ACEA RT-CES cell impedance, LGR4 transfected CHO-K1 cells; conditions: P74C13V 10 uM, H2 Relaxin 1 uM, FIG. 15
T2 construct: expressed in transfected cells; host or cells: CHO-K1 (transient)
Description: as §1, §2

Substance | effect on cell impedance (normalized cell index) [1] | dose response activation (cell impedance) [1] | effect on cell impedance (normalized cell index) [2] | effect on cell impedance (normalized cell index) [3]
GQKGQVGPPGAAVRRAYAAFSVGRRAYAAFSV-OH [Peptide P74C13V] | moderate effect | no dose dependent activation but only a moderate activation of the highest concentrations | moderate yet visible effect | moderate effect
H2 Relaxin: H2 Relaxin (ACS), positive control, known ligand of LGR7 (RXFP1) [reference compound] | moderate effect | no dose dependent activation but only a moderate activation of the highest concentrations | moderate yet visible effect | much stronger effect
